Converted amounts (≈) assume the structure as drawn.
Columns and labels:
[1] = tested on: MDR-EAEC isolate KY941938.1 (MDR 3); test: In vitro antibiotic susceptibility testing; type: cell-based, enteroaggregative Escherichia coli; set-up: key to Antibiotic Susceptibility testing / MIC Values, class symbol: S – Sensitive; R- Resistant; details: for Antibiotic Susceptibility testing: CLSI 2018; for MIC: numeric cells; for MIC Values, class symbol: cells printed as S
Excerpt: (§1) The typical EAEC strains, isolated from the fecal samples of human infants with GenBank accession numbers, KY941936.1 (MDR 1); KY941937.1 (MDR 2); and KY941938.1 (MDR 3), available at Division of Veterinary Public Health, Indian Veterinary Research Institute, Bareilly were re-validated as described earlier ([Vijay et al., 2015]) and tested for antibiotic susceptibility ([Clinical and Laboratory Standards Institute [CLSI], 2018]). E. coli ATCC 25922 used as quality control strain was provided by the Department of Veterinary Public Health, College of Veterinary and Animal Sciences, Pookode, India. These bacterial strains were grown on nutrient agar medium at 37°C.

[2] = tested on: MDR-EAEC isolate KY941937.1 (MDR 2); test: In vitro antibiotic susceptibility testing; type: cell-based, enteroaggregative Escherichia coli; set-up: key to Antibiotic Susceptibility testing / MIC Values, class symbol: S – Sensitive; R- Resistant; details: for Antibiotic Susceptibility testing: CLSI 2018; for MIC: numeric cells; for MIC Values, class symbol: cells printed as S
Excerpt: as §1

[3] = tested on: MDR-EAEC isolate KY941936.1 (MDR 1); test: In vitro antibiotic susceptibility testing; type: cell-based, enteroaggregative Escherichia coli; set-up: key to Antibiotic Susceptibility testing / MIC Values, class symbol: S – Sensitive; R- Resistant; details: for Antibiotic Susceptibility testing: CLSI 2018; for MIC: numeric cells; for MIC Values, class symbol: cells printed as S
Excerpt: as §1

MDR-EAEC strains = test: Survival of MDR-EAEC infected G. mellonella larvae; type: in vivo, Galleria mellonella; details: larvae infected with LD50 dose (10^6 CFU) MDR-EAEC cocktail, treated 3 h pi with MIC dose (10 μL); upto 120 h pi; n = 40 larvae per group
Method: In vivo assays were performed using the final instar of G. mellonella larvae that were stored in wood shavings at 15°C in the dark prior to the experiment ([Morgan et al., 2014]). The larvae were kept in a germ-free environment and were provided with ad libitum food during the course of experiment. Initially, LD50 dose of each MDR-EAEC strains was determined in G. mellonella larvae, and the validated LD50 dose was used further in the in vivo studies to evaluate the antibacterial effect of Indolicidin (Supplementary File S9) by injection with a Hamilton syringe (26 gage) via the last right pro-leg.
(§2) Galleria mellonella larvae (n = 40 larvae per group) were grouped as follows: Group I (infected group), Groups II and III (infection + treatment groups), Group IV (PBS control), and Group V (AMP control). Larvae from groups I to III were infected with cocktail of MDR-EAEC strains (LD50 dose; 10 μL); groups II and III were administered 3 h post-infection (pi) with MIC dose (10 μL) of Indolicidin and Meropenem, respectively; Group IV were injected with sterile PBS whereas, group V was administered with MIC dose of Indolicidin.

MDR-EAEC isolates = test: In vitro dose- and time-dependent killing kinetics; type: cell-based, enteroaggregative Escherichia coli; details: Meropenem 10 μg/ml
Method: The in vitro growth kinetics of MDR-EAEC isolates was evaluated by incubating the log-phase bacterial cultures of each MDR-EAEC isolate (ca. 1 × 10^7 CFU/mL) in CA-MH broth with MIC (1X and 2X) concentrations of Indolicidin, in triplicates (Supplementary File S8). The desired bacterial numbers for each MDR-EAEC isolate and Indolicidin were suspended in CA-MH broth as follows: Group I, 10^7 CFU of MDR-EAEC (50 μL) with 1X MIC Indolicidin (50 μL); Group II, 10^7 CFU of MDR- EAEC (50 μL) with MBC Indolicidin (50 μL); Group III, 10^7 CFU of MDR- EAEC (50 μL) with Meropenem (10 μg/ml; 50 μL); Group IV, 10^7 CFU of MDR- EAEC (50 μL) with CA-MH broth (50 μL) and Group V, 10^7 CFU of MDR- EAEC (50 μL) with 4X MIC Indolicidin (50 μL). To enumerate the antibacterial effect of Indolicidin on MDR-EAEC isolates, an aliquot at 10 μL from all the five groups were drawn at 0, 30, 60, 90, 120, 150, 180 min, 24, 48, and 72 h. These aliquots were serially diluted 10-fold in normal saline solution (prepared using 0.90% of sodium chloride, HiMedia Laboratories); the last three dilutions placed on EMB agar plates containing 100 μg of ampicillin ([Miles et al., 1938]) were counted after 24 h of incubation at 37°C, and the bacterial counts were expressed as log10CFU/mL. […]

G. mellonella larvae = test: Melanization assay in G. mellonella larvae; type: in vivo, Galleria mellonella; details: infected larvae treated 3 h pi; absorbance 450 nm of hemolymph, 6 to 96 h pi
Method: as §2
For determination of the melanin production, an immune marker, the G. mellonella (n=3 larvae per group) were investigated at an interval of 6 h pi for 24 h, followed by 24 h interval till 96 h. An aliquot of the pooled haemolymph (100 µl) was transferred into 96-well microtiter plate for measuring the optical density (OD) at a wavelength of 450 nm using ELISA plate reader (Thermo Scientific Multiskan GO) with OD values of haemolymph collected from apparently healthy un-inoculated larvae as the background control.

CC1(C)S[C@@H]2[C@H](NC(=O)[C@H](N)c3ccccc3)C(=O)N2[C@H]1C(=O)O [AMP, Ampicillin]
Antibiotic Susceptibility testing [1]: R | MIC ([1]; Escherichia coli): > 240 µM | Antibiotic Susceptibility testing [2]: R | MIC ([2]; Escherichia coli): > 240 µM | Antibiotic Susceptibility testing [3]: R | MIC ([3]; Escherichia coli): > 240 µM

Colistin sulphate
Antibiotic Susceptibility testing [1]: S | MIC Values, class symbol [1]: S | Antibiotic Susceptibility testing [2]: S | MIC Values, class symbol [2]: S | Antibiotic Susceptibility testing [3]: S | MIC Values, class symbol [3]: S

Co-trimoxazole [COT]
Antibiotic Susceptibility testing [1]: R | MIC [1]: >240 µM | Antibiotic Susceptibility testing [2]: R | MIC [2]: >240 µM | Antibiotic Susceptibility testing [3]: R | MIC [3]: >240 µM

Cc1cc(NS(=O)(=O)c2ccc(N)cc2)no1 [SXT, Sulfamethoxazole]
Antibiotic Susceptibility testing [1]: R | Antibiotic Susceptibility testing [2]: S | Antibiotic Susceptibility testing [3]: R

C[C@@H](O)[C@H]1C(=O)N2C(C(=O)O)=C(SCCN=CN)C[C@H]12 [IMI, Imipenem]
Antibiotic Susceptibility testing [1]: S | MIC Values, class symbol [1]: S | Antibiotic Susceptibility testing [2]: S | MIC Values, class symbol [2]: S | Antibiotic Susceptibility testing [3]: S | MIC Values, class symbol [3]: S

CO/N=C(\C(=O)N[C@@H]1C(=O)N2C(C(=O)O)=C(CSc3nc(=O)c(=O)[nH]n3C)CS[C@H]12)c1csc(N)n1 [CTR, Ceftriaxone]
Antibiotic Susceptibility testing [1]: R | MIC ([1]; Escherichia coli): > 240 µM | Antibiotic Susceptibility testing [2]: R | MIC ([2]; Escherichia coli): > 240 µM | Antibiotic Susceptibility testing [3]: S | MIC Values, class symbol [3]: S

CN(C)[C@@H]1C(O)=C(C(N)=O)C(=O)[C@@]2(O)C(O)=C3C(=O)c4c(O)cccc4[C@@](C)(O)[C@H]3C[C@@H]12 [TE, Tetracycline]
Antibiotic Susceptibility testing [1]: R | MIC ([1]; Escherichia coli): 30 µM (≈ 13.3 µg/mL) | Antibiotic Susceptibility testing [2]: R | MIC ([2]; Escherichia coli): 2 µM (≈ 0.889 µg/mL) | Antibiotic Susceptibility testing [3]: R | MIC ([3]; Escherichia coli): 60 µM (≈ 26.7 µg/mL)

O=C(N[C@H](CO)[C@H](O)c1ccc([N+](=O)[O-])cc1)C(Cl)Cl [CL, Chloramphenicol]
Antibiotic Susceptibility testing [1]: S | MIC Values, class symbol [1]: S | Antibiotic Susceptibility testing [2]: S | MIC Values, class symbol [2]: S | Antibiotic Susceptibility testing [3]: S | MIC Values, class symbol [3]: S

CNC(C)C1CCC(N)C(OC2C(N)CC(N)C(OC3OCC(C)(O)C(NC)C3O)C2O)O1 (centres unmarked) [GEN, Gentamicin]
Antibiotic Susceptibility testing [1]: S | MIC Values, class symbol [1]: S | Antibiotic Susceptibility testing [2]: S | MIC Values, class symbol [2]: S | Antibiotic Susceptibility testing [3]: S | MIC Values, class symbol [3]: S

O=C(O)c1cn(C2CC2)c2cc(N3CCNCC3)c(F)cc2c1=O [CIP, Ciprofloxacin]
MIC ([1]; Escherichia coli): 60 µM (≈ 19.9 µg/mL) | MIC ([2]; Escherichia coli): 120 µM (≈ 39.8 µg/mL)

C[C@@H](O)[C@H]1C(=O)N2C(C(=O)O)=C(S[C@@H]3CN[C@H](C(=O)N(C)C)C3)[C@H](C)[C@H]12 [Meropenem]
survival rate (MDR-EAEC strains): 85% | time to similar inhibition (complete elimination) in time-kill kinetic assay (MDR-EAEC isolates): 60 min | melanization (G. mellonella larvae): the melanization was lower at 6 h pi, reached its peak at 18 h pi and thereafter gradually declined

From PMC6895141, “Antimicrobial Efficacy of Indolicidin Against Multi-Drug Resistant Enteroaggregative Escherichia coli in a Galleria mellonella Model” (Frontiers in Microbiology, 2019)
